Measured values: patent publication US12630550B2, “Pharmacophore for trail induction” (THE SCRIPPS RESEARCH INSTITUTE, priority 2014, dated 2026)

System: TRAIL mRNA expression
Details: RAW 264.7; doses as high as 10 μM or prolonged exposure
Description: RAW 264.7 cells (ATCC TIB-71) were maintained in growth medium of Dulbecco's Modified Eagle's Medium (DMEM with 4.5 g/L glucose and pyruvate, Gibco BRL, Invitrogen Corp., USA) supplemented with L-glutamine, penicillin/streptomycin, non-essential amino acids (100× stocks, Invitrogen Corp.), 10 mM HEPES, pH 7.4 (1 M stock, Invitrogen), and 10% Fetal Bovine Serum (FBS, Hyclone); (V. V. Kravchenko, R. J. Ulevitch, G. F. Kaufmann, Methods Mol. Biol. 2011, 692, 133-145).
Cells were plated in 6-well plates (Corning Costar 3506) diluted 1:5 in 3 mL growth medium, media was changed after cells had adhered. After 12 h incubation, cells were treated with described concentration of compound in DMSO, and incubated in the presence of that compound or vehicle for the described amount of time. At this time, media was removed and cells were treated with TRIzol reagent (Life Technologies), and RNA extracted via included protocol. RNA concentration determined using a Hitachi U-2000 UV-Vis Spectrophotometer and samples diluted to 12 μg/5 μL in H2O. […]

Cc1ccccc1CN1C2=NCCN2C(=O)C2=C1CCN(Cc1ccccc1)C2 [Compound 1, 7-Benzyl-10-(2-methylbenzyl)-2,6,7,8,9,10-hexahydroimidazo[1,2-a]pyrido[4,3-d]pyrimidin-5(3H)-one, reference compound]
change in TRAIL mRNA expression over controls: No change in TRAIL mRNA expression over controls
